In patent US20050287078A1, “Minimizing powder retention on surfaces” (MEDERIO AG, priority 2004, published 2005):

Assay: Ipratropium climate stability tests (fine particle dose out of HandiHaler, Andersen impactor)
Details: Atrovent powder, 1 month at 25° C./60% Rh or 40° C./75% Rh, FIG. 4
Experimental: The powder was withdrawn from the originator's capsules and transferred to the capsules again after climate storage. The aerodynamic fine particle fraction (FPF) in the emitted dose from the HandiHaler® was measured using Andersen impactors according to European Pharmacopoeia (EP) and US Pharmacopoeia (USP). All analytical work were then performed according to standardized methods using a state of the art High Performance Liquid Chromatograph (HPLC) system.
Aerodynamic fine particle fraction of metered and delivered dose out of Handihaler® using Atrovent® formulation powder was analyzed. Transfer of powder from and back into originator capsules was performed in relative humidity below 10%. The test was performed with 4 kPa pressure drop over the HandiHaler® at room temperature and laboratory ambient conditions.
An in-use stability test was carried out of the aerodynamic fine particle fraction of metered and delivered dose out of Handihaler®. From the blister holding the Atrovent® capsules the powder was transferred to a medium moisture barrier container and sealed. The containers were put for 1 month in 25° C. and 60% Rh. The container holding the powder was then put in an exicator for 2 h before tests were performed. The inhaler test was performed with 4 kPa pressure drop over the HandiHaler® at room temperature and laboratory ambient conditions. […]

Question: Which “Moisture sensitivity (drop in fine particle dose, FPD)” value does the source give for `CC(C)[N+]1(C)[C@@H]2CC[C@H]1CC(OC(=O)C(CO)c1ccccc1)C2.[Br-]` (stereo partly shown) [ipratropium bromide] here?
Answer: Its value is “very moisture sensitive”.
